The results in this text go back to patent US7638639B2, “Substituted pyrrolidine and related compounds” (Theravance, Inc., priority 2003, dated 2009).

pKi: −log10 of the molar value.

Assay [1] has as its target T1, hM2 receptor (Homo sapiens, UniProt P08172).
T1 construct: expressed in transfected cells
T1 sequence (P08172 1-466): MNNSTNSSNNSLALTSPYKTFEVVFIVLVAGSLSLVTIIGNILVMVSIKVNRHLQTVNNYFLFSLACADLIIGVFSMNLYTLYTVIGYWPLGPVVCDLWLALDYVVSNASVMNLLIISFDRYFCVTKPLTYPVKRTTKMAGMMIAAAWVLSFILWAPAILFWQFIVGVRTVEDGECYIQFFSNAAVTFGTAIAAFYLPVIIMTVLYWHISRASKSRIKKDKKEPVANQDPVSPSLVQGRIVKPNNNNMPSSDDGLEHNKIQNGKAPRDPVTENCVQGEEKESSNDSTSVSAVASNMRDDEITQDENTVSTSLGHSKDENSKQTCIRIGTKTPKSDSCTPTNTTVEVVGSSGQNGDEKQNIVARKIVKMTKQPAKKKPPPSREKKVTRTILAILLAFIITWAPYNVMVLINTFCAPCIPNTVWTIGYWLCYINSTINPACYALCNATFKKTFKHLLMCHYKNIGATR
Nature of the assay: Blockade of agonist-mediated [35S]GTPγS binding. Format: biochemical. The note with it: CHO-K1 cells expressing the hM2 receptor; read-out: Ki for blockade of oxotremorine-stimulated [35S]GTPγS binding. As to the method:
B. Blockade of Agonist-Mediated GTPγ[^35S] Binding
In a second functional assay, the functional potency of a test compound is determined by measuring the ability of the compound to block oxotremorine-stimulated [^35S]GTPγS binding in CHO-K^1 cells expressing the hM2 receptor. At the time of use, frozen membranes were thawed and then diluted in assay buffer with a final target tissue concentration of 5-10 μg protein per well. The membranes were briefly homogenized using a Polytron PT-2100 tissue disrupter and then added to the assay plates.
The EC90 value (effective concentration for 90% maximal response) for stimulation of [^35S]GTPγS binding by the agonist oxotremorine was determined in each experiment.
The assay plates were then incubated at 37° C. for 60 minutes. The assay plates were filtered over 1% BSA-pretreated GF/B filters using a PerkinElmer 96-well harvester. The plates were rinsed with ice-cold wash buffer for 3×3 seconds and then air or vacuum dried. Microscint-20 scintillation liquid (50 μL) was added to each well, and each plate was sealed and radioactivity counted on a topcounter (PerkinElmer). Data were analyzed by nonlinear regression analysis with the GraphPad Prism Software package (GraphPad Software, Inc., San Diego, Calif.) using the non-linear regression, one-site competition equation. […]
Background: GTPγS is a poorly hydrolysed GTP analogue; its binding reports G protein activation.

For assay [2], the target named is T2, hM2 muscarinic receptor subtype (Homo sapiens, UniProt P08172).
T2 construct: expressed in transfected cells
T2 sequence (P08172 1-466): T1 sequence (P08172 1-466)
Put plainly: Radioligand binding assay ([3H]-NMS displacement), hM2. The procedure:
A. Membrane Preparation from Cells Expressing hM1, hM2, hM3 and hM4 Muscarinic Receptor Subtypes
CHO (Chinese hamster ovary) cell lines stably expressing cloned human hM1, hM2, hM3 and hM4 muscarinic receptor subtypes, respectively, were grown to near confluency in medium consisting of HAM's F-12 supplemented with 10% FBS (Fetal Bovine Serum) and 250 μg/mL Geneticin. The cells were grown in a 5% CO2, 37° C. incubator and lifted with 2 mm EDTA in dPBS. Cells were collected by 5 minute centrifugation at 650×g, and cell pellets were either stored frozen at −80° C. or membranes were prepared immediately. For membrane preparation, cell pellets were resuspended in lysis buffer and homogenized with a Polytron PT-2100 tissue disrupter (Kinematica AG; 20 seconds×2 bursts). Crude membranes were centrifuged at 40,000×g for 15 minutes at 4° C. The membrane pellet was then resuspended with resuspension buffer and homogenized again with the Polytron tissue disrupter. The protein concentration of the membrane suspension was determined by the method described in Lowry, O. et al., 1951, […]: 193, 265. All membranes were stored frozen in aliquots at −80° C. or used immediately. Aliquots of prepared hM5 receptor membranes were purchased directly from Perkin Elmer and stored at −80° C. until use.
B. Radioligand Binding Assay on Muscarinic Receptor Subtypes hM1, hM2, hM3, hM4 and hM5
Radioligand binding assays were performed in 96-well microtiter plates in a total assay volume of 100 μL. CHO cell membranes stably expressing either the hM1, hM2, hM3, hM4 or hM5 muscarinic subtype were diluted in assay buffer to the following specific target protein concentrations (μg/well): 10 μg for hM1, 10-15 μg for hM2, 10-20 μg for hM3, 10-20 μg for hM4, and 10-12 μg for hM5. The membranes were briefly homogenized using a Polytron tissue disruptor (10 seconds) prior to assay plate addition. Saturation binding studies for determining KD values of the radioligand were performed using L-[N-methyl-3H]scopolamine methyl chloride ([^3H]-NMS) (TRK666, 84.0 Ci/mmol, Amersham Pharmacia Biotech, Buckinghamshire, England) at concentrations ranging from 0.001 nM to 20 nM. Displacement assays for determination of Ki values of test compounds were performed with [^3H]-NMS at 1 nM and eleven different test compound concentrations. The test compounds were initially dissolved to a concentration of 400 μM in dilution buffer and then serially diluted 5× with dilution buffer to final concentrations ranging from […] to […]. The addition order and volumes to the assay plates were as follows: 25 μL radioligand, 25 μL diluted test compound, and 50 μL membranes. Assay plates were incubated for 60 minutes at 37° C. Binding reactions were terminated by rapid filtration over GF/B glass fiber filter plates (PerkinElmer Inc., Wellesley, Mass.) pre-treated in 1% BSA. Filter plates were rinsed three times with wash buffer (10 mm HEPES) to remove unbound radioactivity. Plates were then air dried, and 50 μL Microscint-20 liquid scintillation fluid (PerkinElmer Inc., Wellesley, Mass.) was added to each well. The plates were then counted in a PerkinElmer Topcount liquid scintillation counter (PerkinElmer Inc., Wellesley, Mass.). Binding data were analyzed by nonlinear regression analysis with the GraphPad Prism Software package (GraphPad Software, Inc., San Diego, Calif.) using the one-site competition model. Ki values for test compounds were calculated from observed IC50 values and the KD value of the radioligand using the Cheng-Prusoff equation (Cheng Y; Prusoff W H. (1973) Biochemical Pharmacology, 22(23):3099-108). Ki values were converted to pKi values to determine the geometric mean and 95% confidence intervals. These summary statistics were then converted back to Ki values for data reporting.

Broadly, the pKi is −log10 of the Ki, conventionally taken in molar units. With `CNCCCCCCCCN1CC[C@@H](C(C(N)=O)(c2ccccc2)c2ccccc2)C1` [Example 1, 2-[(S)-1-(8-Methylaminooctyl)pyrrolidin-3-yl]-2,2-diphenylacetamide], the pKi was > 8.30 in assay [1] and 8.42 in assay [2] (CHO cell membranes, [3H]-NMS 1 nM, read-out: hM2 binding affinity (Ki)). In addition, in assay [2] (ratio of hM2 Ki values), the “Δ hM2: change in binding affinity relative to compound of the invention” value is given as “×4.7”.
